{"source": "patent US20100256576A1", "about": "“Disinfectant Compositions, Methods and Systems” (TYCO HEALTHCARE GROUP LP, priority 2009, published 2010)", "origin": "cited, not measured here", "details": "up to 3000 mg infused over 3 hours, daily, humans with hypercalcemia"}
{"molecule": "O=C([O-])CN(CCN(CC(=O)[O-])CC(=O)O)CC(=O)O.[Na+].[Na+]", "note": "[EDTA, Disodium EDTA]", "values": [{"measurement": "tolerability of infused dose", "result": "well tolerated"}]}
